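Tested at 5 concentrations; 48 h exposure; 96-well plates; endpoints linearly interpolated, else capped at highest concentration. GI50: concentration for 50% inhibition of growth. TGI denotes the concentration required for complete inhibition of growth.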

Test systems include K-562 leukemia; RPMI-8226 leukemia; MDA-MB-231 breast; NCI-H23 lung; KM12 colon; SNB-75 CNS; IGROV1 ovarian; HOP-62 NSCLC; CCRF-CEM leukemia; MALME-3M melanoma.
What all share (test): growth of human tumour cells (NCI), 48 h

In the case of `O=C1[C@H](O)[C@@H]2C(O)O[C@H]3[C@@H]2N1C[C@H]3[Si](c1ccccc1)(c1ccccc1)c1ccccc1` (stereo partly drawn), the TGI with K-562 leukemia was above 100 µM; in the assay on RPMI-8226 leukemia it was above 100 µM; in the assay on MDA-MB-231 breast, above 100 µM; in the assay with NCI-H23 lung, above 100 µM; with KM12 colon, above 100 µM; in the assay with SNB-75 CNS it was 69.4 µM. The TGI in the assay with IGROV1 ovarian and in the assay on HOP-62 NSCLC was above 100 µM throughout.
Turning to `CN1CCC(CNc2cc(C3(C(=O)Nc4cc(C(=O)Nc5ccc(Cl)c(C(F)(F)F)c5)ccc4F)CC3)ncn2)CC1`, the GI50 with MDA-MB-231 breast was 1.42 µM; with NCI-H23 lung, 1.94 µM; with KM12 colon, 2.58 µM; in the assay with SNB-75 CNS, 0.955 µM; in the assay with IGROV1 ovarian, 2.17 µM; with HOP-62 NSCLC it was 2 µM. In addition, the TGI in the assay on MDA-MB-231 breast was 2.99 µM; in the assay with NCI-H23 lung, 4.57 µM; with KM12 colon, 6.91 µM; in the assay on SNB-75 CNS, 2.86 µM; with IGROV1 ovarian it was 6.19 µM; in the assay on HOP-62 NSCLC, 3.97 µM.
Consider `CC(=O)Nc1ccc2c(C)c3c(nc2n1)[nH]c1ccccc13`, for which the TGI is above 100 µM in the assay with K-562 leukemia; 55.2 µM in the assay on RPMI-8226 leukemia; above 100 µM with CCRF-CEM leukemia; above 100 µM in the assay on MDA-MB-231 breast; 91.1 µM in the assay on NCI-H23 lung; 47.6 µM with KM12 colon. The TGI was 69.2 µM in the assay with SNB-75 CNS, 71.4 µM in the assay with IGROV1 ovarian and above 100 µM in the assay with HOP-62 NSCLC.
For the molecule `O=c1[nH]c2nc3ccccc3c(=O)n2/c1=C/c1ccc(Cl)cc1`, the TGI in the assay on RPMI-8226 leukemia, in the assay with CCRF-CEM leukemia, with MDA-MB-231 breast, with NCI-H23 lung, with KM12 colon and in the assay on HOP-62 NSCLC was above 100 µM each time. The same molecule came in with a TGI with MALME-3M melanoma above 100 µM.
`CCCCCOc1ccc(C=Nc2ccc(CCc3ccc(N=Cc4ccc(OCCCCC)cc4)cc3)cc2)cc1`: the TGI with K-562 leukemia, in the assay with RPMI-8226 leukemia, in the assay on CCRF-CEM leukemia, with NCI-H23 lung, in the assay with KM12 colon and with SNB-75 CNS was above 100 µM throughout. In addition, the TGI in the assay on IGROV1 ovarian, in the assay on HOP-62 NSCLC and in the assay on MALME-3M melanoma was above 100 µM each time.
As to `CCn1nc(C)c2c1C(=O)NCC(=O)N2`, the TGI with NCI-H23 lung, in the assay on KM12 colon, with SNB-75 CNS and in the assay with IGROV1 ovarian was above 100 µM in each case.
In the case of `CNC(C)(C)Cc1ccc(Cl)cc1`, the TGI with K-562 leukemia, with RPMI-8226 leukemia, in the assay on CCRF-CEM leukemia, in the assay with NCI-H23 lung, in the assay on KM12 colon and with SNB-75 CNS was above 100 µM in each case. Besides, the TGI in the assay on IGROV1 ovarian, in the assay with HOP-62 NSCLC and in the assay with MALME-3M melanoma was above 100 µM throughout.
For `c1ccc(-c2csc3c4ccccc4c4ccccc4[n+]23)cc1`, the TGI with K-562 leukemia was above 30.7 µM; in the assay on RPMI-8226 leukemia, above 100 µM; in the assay with CCRF-CEM leukemia it was above 38.5 µM; in the assay with NCI-H23 lung it was 11.9 µM; with KM12 colon, 3.36 µM; with SNB-75 CNS it was 6.98 µM. The figures for the TGI in the assay with IGROV1 ovarian, with HOP-62 NSCLC and in the assay with MALME-3M melanoma were 31.3 µM, 20.7 µM and 3.21 µM, respectively.
Turning to `O=C(O)CCc1nc2c(n1-c1ccccc1)C(=O)c1ccccc1C2=O`, the TGI in the assay with K-562 leukemia, with RPMI-8226 leukemia, with CCRF-CEM leukemia, in the assay on MDA-MB-231 breast, in the assay on NCI-H23 lung and in the assay on KM12 colon was above 100 µM in each case. Besides, the TGI with SNB-75 CNS, in the assay with IGROV1 ovarian and in the assay with HOP-62 NSCLC was above 100 µM each time.
Turning to `CC(C)(C)c1ccccc1N1C(=O)c2ccc3c4c(ccc(c24)C1=O)N(c1ccccc1C(C)(C)C)C3=O`, the TGI in the assay with K-562 leukemia, in the assay on RPMI-8226 leukemia, with CCRF-CEM leukemia, in the assay with MDA-MB-231 breast, in the assay on NCI-H23 lung and in the assay with KM12 colon was above 100 µM each time. Further, the TGI in the assay on IGROV1 ovarian and in the assay with HOP-62 NSCLC was above 100 µM in each case.
Turning to `c1ccc(/C(=N/Nc2nc3ccccc3s2)C2CCCCC2)nc1`, the TGI in the assay with K-562 leukemia amounted to 70 µM; in the assay with RPMI-8226 leukemia it was 21.9 µM; in the assay with CCRF-CEM leukemia, 15.4 µM; with MDA-MB-231 breast it was 27.3 µM; in the assay with NCI-H23 lung it was 21.8 µM; with KM12 colon, 29.6 µM. Moreover, the figures for the TGI in the assay on IGROV1 ovarian, in the assay with HOP-62 NSCLC and in the assay with MALME-3M melanoma were 16.5 µM, 23.5 µM and 20.9 µM, respectively.
For the molecule `Cc1ccc(C)c(NC(=O)C(=O)C(C(=O)c2ccc3ccccc3c2)C2OC(=O)c3ccccc32)c1` (stereo not drawn), the TGI with K-562 leukemia is above 100 µM; in the assay on RPMI-8226 leukemia, above 100 µM; with CCRF-CEM leukemia it was 64.9 µM; in the assay with NCI-H23 lung, 54.8 µM; in the assay on KM12 colon, 33.2 µM; in the assay on SNB-75 CNS, 58.8 µM. The results for the TGI with IGROV1 ovarian and with HOP-62 NSCLC were 40.5 µM and 62.1 µM, respectively.
Turning to `O=C(Nc1ccccc1F)c1cc2ccc(O)cc2oc1=Nc1cccc(F)c1`, the TGI was 79.3 µM in the assay with K-562 leukemia; above 100 µM with RPMI-8226 leukemia; 15.3 µM in the assay on CCRF-CEM leukemia; 5.36 µM in the assay on NCI-H23 lung; 44.7 µM with KM12 colon; 14.6 µM in the assay with IGROV1 ovarian. For the same molecule, the TGI in the assay on HOP-62 NSCLC worked out at 38.6 µM; with MALME-3M melanoma, 98.7 µM.
In the case of `O=c1[nH]/c(=C/c2ccc(OCc3ccccc3)cn2)c(=O)[nH]/c1=C/c1ccccc1`, the TGI with K-562 leukemia was above 100 µM; in the assay with RPMI-8226 leukemia, above 100 µM; with MDA-MB-231 breast, above 100 µM; with KM12 colon it was above 100 µM; with SNB-75 CNS it was 0.0706 µM; in the assay on IGROV1 ovarian, above 24.6 µM. In the assay with HOP-62 NSCLC, this molecule yielded a TGI above 100 µM.
As for `Cn1c(=O)c2[nH]c(N/N=N/c3nncs3)nc2n(C)c1=O`, the TGI in the assay with K-562 leukemia, with CCRF-CEM leukemia, in the assay on MDA-MB-231 breast, with NCI-H23 lung, in the assay on KM12 colon and in the assay on IGROV1 ovarian was above 100 µM each time. In addition, the TGI with HOP-62 NSCLC is above 100 µM.

(Values after PubChem BioAssay (NCI).)
